In patent US10696686B2, “Herbicidally active (alkynyl-phenyl)-substituted cyclic dione compounds and derivatives thereof” (Syngenta Limited, priority 2013, dated 2020):
Read-outs that look alike come from different tables or passages of the source.

Assays:
Format in all cases: in vivo
Setaria faberi (SETFA) [1] = assay: Biological Example 3 glasshouse assay using various adjuvant systems, post-emergence foliar spray; conditions: 8 g/ha
Method: (§1) Post-emergence foliar spray application, 200 L/ha, usually one or two replicates for the weeds (depending on application rate), and two replicates for soybean.
(§2) Standard warm conditions (tropical), in glasshouse. Specifically, the glasshouse bay conditions are 24° C./18° C. day/night; 16/8 hours light/dark; 65% humidity.
(§3) The herbicidal application takes place at the following growth stages for plants which include inter alia one or more of the following plants (usually the herbicidal application takes place on at least the following plants: DIGSA, ELEIN, SETFA, ZEAMX, GLXMA Nikko, and GLXMA TMG133, and often also either BRADC or BRAPP):
Setaria faberi (SETFA)—growth stage 12 or 13
(§4) Each test compound is applied with one of the following adjuvant systems (all percentages are final concentrations in the aqueous spray mixture):
(§5) Adjuvant system 1: 0.5% v/v Adigor™ *, 1.0% v/v AMS (ammonium sulphate) and 12.5% v/v IPA (isopropyl alcohol).
(§6) Adjuvant system 1A: 0.5% v/v Adigor™ * and 12.5% v/v IPA (isopropyl alcohol).
CAS Registry no. […] A visual assessment of the % herbicidal damage is made 7 and 14 Days After herbicide Application (DAA) (or, in a minority of cases, 7 and 15 DAA), and the results are recorded as % visual herbicidal damage where 0%=no damage to plants and 100%=plant totally killed. *** Adjuvant system=either Adigor™ or Hexamoll DINCH™ or tris-(2-ethylhexyl) phosphate each at 0.5% v/v, and 12.5% v/v IPA (isopropyl alcohol), and 1.0% v/v AMS (ammonium sulphate); or 0.5% v/v Adigor™ and 12.5% v/v IPA (isopropyl alcohol); all percentages are final concentrations in the aqueous spray mixture. […]
The percentages of herbicidal damage/plant control, at 14 Days After herbicide Application (DAA) (or, in a minority of cases, at 15 DAA), for the Compounds tested and for some of the plants tested, were in the following percentage ranges. […] Phytotoxicity on Glycine max (GLXMA, Soybean) Cultivar “TMG133” Glycine max (GLXMA, soybean) cultivar “TMG133” is Roundup Ready™ glyphosate-tolerant soybean cultivar TMG133, and is typically available from Monsanto in Brazil.

[2] = system: Zea mays (ZEAMX, maize, corn) cultivar Garland; assay: as above; conditions: 8 g/ha
Method: as §1, §2, §3
Zea mays (ZEAMX, maize/corn, e.g. can occur as volunteer corn) cultivar “Garland”—growth stage 12 or 13
as §4, §5, §6
CAS Registry no. 166412-78-8), and is usually available from BASF. “Isononyl” in this context is thought to mean a mixture of two or more branched isomers of C9H19. […] A visual assessment of the % herbicidal damage is made 7 and 14 Days After herbicide Application (DAA) (or, in a minority of cases, 7 and 15 DAA), and the results are recorded as % visual herbicidal damage where 0%=no damage to plants and 100%=plant totally killed. *** Adjuvant system=either Adigor™ or Hexamoll DINCH™ or tris-(2-ethylhexyl) phosphate each at 0.5% v/v, and 12.5% v/v IPA (isopropyl alcohol), and 1.0% v/v AMS (ammonium sulphate); or 0.5% v/v Adigor™ and 12.5% v/v IPA (isopropyl alcohol); all percentages are final concentrations in the aqueous spray mixture. […]

Setaria faberi (SETFA) [3] = assay: Biological Example 1A glasshouse assay, post-emergence application; conditions: Setaria faberi, 312 h, post-emergence, read-out: Percentage phytotoxicity SETFA
Method: Seeds of a variety of test plant species were sown in standard soil ** in pots. After cultivation for one day (pre-emergence) or after 8 days cultivation (post-emergence) under controlled conditions in a glasshouse (at 24/16° C., day/night; 14 hours light; 65% humidity), the plants were sprayed with an aqueous spray solution derived from the formulation of the technical active ingredient (the test herbicide) in acetone/water (50:50) solution containing 0.5% Tween 20 (polyoxyethylene sorbitan monolaurate, CAS Reg. No. 9005-64-5). The test plants were then grown on under controlled conditions in a glasshouse (at 24/16° C., day/night; 14 hours light; 65% humidity) and watered twice daily. 13 Days after application of the test herbicide, for pre- and post-emergence, the test was evaluated visually for percentage phytotoxicity to each plant (where 100%=total damage to plant; 0%=no damage to plant). Generally, each test herbicide is only tested on 1 plant per plant species for each application rate tested and for each application timing. ** The “standard soil” in Biological Example 1 is usually a “sand” or “sandy loam” type of soil.
Dicotyledonous weeds: ABUTH=Abutilon theophrasti; AMARE=Amaranthus retroflexus. Grassy monocotyledonous weeds: SETFA=Setaria faberi; ALOMY=Alopecurus myosuroides; ECHCG=Echinochloa crus-galli; ZEAMX=Zea mays (corn, maize, e.g. volunteer corn). For Compound A16, the grassy monocotyledonous weed LOLPE (Lolium perenne) was used in the test insterad of ALOMY.

[4] = system: Glycine max (GLXMA, soybean) cultivar TMG133; assay: Biological Example 3 glasshouse assay using various adjuvant systems, post-emergence foliar spray
Method: as §1, §2, §3
Glycine max (GLXMA, soybean) cultivar “TMG133”—which is Roundup Ready™ glyphosate-tolerant soybean cultivar TMG133 (typically available from Monsanto in Brazil)—growth stage: 1st trifoliate.
as §4, §5, §6
CAS Registry no. 166412-78-8), and is usually available from BASF. “Isononyl” in this context is thought to mean a mixture of two or more branched isomers of C9H19. Method: Seeds of the weed (including volunteer) plants, typically including inter alia Digitaria sanguinalis (DIGSA), Eleusine indica (ELEIN), Setaria faberi (SETFA), Zea mays (ZEAMX, corn), and sometimes also [either Brachiaria decumbens (BRADC) or Brachiaria platyphylla (BRAPP)], are sown in seed trays (troughs) containing clay loam soil (pH 7.0, 2.2% organic matter, “Trough Mix A”); and soybean seed is sown in pots containing the same soil with 3 soybean seedlings per pot. The plants are sprayed with the test herbicide when they reach the growth stages mentioned above. The test herbicidal solutions are prepared by mixing the appropriate aliquots of the test substance(s) and one of the adjuvant systems indicated above *** in deionised water to give the desired treatment concentration. The herbicidal application is made as a foliar spray, using a tracksprayer. Following the herbicidal application, the plants are watered twice per day for the duration of the test. A visual assessment of the % herbicidal damage is made 7 and 14 Days After herbicide Application (DAA) (or, in a minority of cases, 7 and 15 DAA), and the results are recorded as % visual herbicidal damage where 0%=no damage to plants and 100%=plant totally killed. *** Adjuvant system=either Adigor™ or Hexamoll DINCH™ or tris-(2-ethylhexyl) phosphate each at 0.5% v/v, and 12.5% v/v IPA (isopropyl alcohol), and 1.0% v/v AMS (ammonium sulphate); or 0.5% v/v Adigor™ and 12.5% v/v IPA (isopropyl alcohol); all percentages are final concentrations in the aqueous spray mixture.
Compounds A8, A11 and A17, which are compounds of formula (I) according to the present invention, were tested in a test method substantially as described above.
Compound A8 was tested using the 0.5% v/v Adigor™+12.5% v/v IPA adjuvant system. Compounds A11 and A17 were tested using the 0.5% v/v Adigor™+1.0% v/v AMS+12.5% v/v IPA adjuvant system.
The percentages of herbicidal damage/plant control, at 14 Days After herbicide Application (DAA) (or, in a minority of cases, at 15 DAA), for the Compounds tested and for some of the plants tested, were in the following percentage ranges. […]

[5] = 14 DAA (A11: 14 or 15 DAA), adjuvant 0.5% v/v Adigor + 1.0% v/v AMS + 12.5% v/v IPA
[6] = 14 DAA, adjuvant 0.5% v/v Adigor + 12.5% v/v IPA

Row | Structure (SMILES) | percentage control of Setaria faberi (SETFA) (Setaria faberi (SETFA) [1]; [5]) | percentage control of Zea mays (ZEAMX, maize, corn) [2, 5] | pest or weed control at 30 g/ha (Setaria faberi (SETFA) [3]; 30 g/ha, 13 days after application) | pest or weed control at 250 g/ha (Setaria faberi (SETFA) [3]; 250 g/ha, 13 days after application) | percentage phytotoxicity on Glycine max (GLXMA, soybean) cultivar TMG133 ([4]; 120 g/ha, 14 DAA (A11: 14 or 15 DAA), adjuvant 0.5% v/v Adigor + 1.0% v/v AMS + 12.5% v/v IPA) | percentage phytotoxicity on Glycine max (GLXMA, soybean) cultivar TMG133 ([4]; 240 g/ha, 14 DAA (A11: 14 or 15 DAA), adjuvant 0.5% v/v Adigor + 1.0% v/v AMS + 12.5% v/v IPA) | percentage control of (phytotoxicity on) Setaria faberi (SETFA) (Setaria faberi (SETFA) [1]; [6]) | percentage control of (phytotoxicity on) Zea mays (ZEAMX, maize, corn) [2, 6] | pest or weed control at 30 g/ha (Setaria faberi (SETFA) [3]) | pest or weed control at 250 g/ha (Setaria faberi (SETFA) [3]) | percentage phytotoxicity on Glycine max (GLXMA, soybean) cultivar TMG133 ([4]; 120 g/ha, 14 DAA, adjuvant 0.5% v/v Adigor + 12.5% v/v IPA)
1 | CC#Cc1cc(F)c(C2C(=O)CC(CCSC)CC2=O)c(OC)c1 (centres unmarked) [Compound A11] | 0% | 0% | 30% | 60% | 5% | 5% | – | – | – | – | –
2 | C#CCC1CC(=O)C(c2c(F)cc(C#CC)cc2OC)C1=O (centres unmarked) [Compound A8, 2-(2-fluoro-6-methoxy-4-prop-1-ynyl-phenyl)-4-prop-2-ynyl-cyclopentane-1,3-dione] | – | – | – | – | – | – | 75% | 65% | 80% | 100% | 17.5%
